From US10427133B2, “Absorbent article comprising cyclodextrin complexes” (The Procter & Gamble Company, priority 2016, dated 2019)

Legend:
[1] = Fragrance (OCOC) release from cyclodextrin complexes on feminine hygiene pad, SPME-GC/MS headspace; format: physicochemical; settings: 1.00 mL water, headspace at 5, 10, 30 min, FIG. 2
Source text: The results are shown in the graph of FIG. 2. After dosing with water the headspace was sampled using Solid Phase Micro-Extraction (a suitable fiber assembly is a 2 cm Stableflex 24 Ga, 50/30 μm DVB/CAR/PDMS available from Supelco, Pa. or equivalent) followed by gas chromatography/mass spectrometry (a suitable unit is the 5777A Mass Selective Detector (MSD) also available from Agilent, or equivalent) with a GERSTEL Multipurpose Sampler (Gerstel, Liticumo, Md. or equivalent) to quantify the OCOC release.
The model OCOC used is a neat mixture of benzaldehyde (1.6 g, 15.08 mmols), ligustral (1.6 g, 11.58 mmols), citral (1.6 g, 10.51 mmols), cinnamic aldehyde (1.6 g, 12.11 mmols), and florhydral (1.6 g, 8.41 mmols). All components are available from Sigma Aldrich, or equivalent. The mixture is homogenized before use.
The Standard Pad Substrates are prepared by cutting a 10 cm lateral strip across the whole product centered at the longitudinal center of an Always Ultra normal size pad.
A mixture of the model OCOC for each β-cyclodextrin type was solubilized in water at a one-to-one molar ratio (β-cyclodextrin/OCOC). The amount of water used for the complexation was adjusted for each β-cyclodextrin type according to its individual water solubility to ensure complete dissolution of the β-cyclodextrin complex. Each mixture of β-cyclodextrin and OCOC in water was thoroughly homogenized. […]

[2] = Thiol Vapor Pressure Suppression (TVPS) index measurement, zNose fast GC headspace; settings: 5 μl compound, 100 μl 1% v/v butanethiol in ethanol, 37° C. for 4 hours
Source text: Thiol Vapor Pressure Suppression (TVPS) index is a measure of the reduction in butanethiol concentration in the headspace by a compound, as measured using a fast GC instrument, the zNose 7100 (Electronic Sensor Technologies, Newbury Park, Calif.).
Thiol Vapor Pressure Suppression (TVPS) index is a measure of the reduction in butanethiol concentration in the headspace by a compound, as measured using a fast GC instrument, the zNose 7100 (Electronic Sensor Technologies, Newbury Park, Calif.) based on an Surface Acoustic Wave (SAW) Quartz microbalance detector, or equivalent.
Before any measurements the instrument is calibrated according to manufacturer's instructions under the same experimental settings. The instrument has a DB-5 column (also available from Electronic Sensor Technologies, Newbury Park, Calif.) 1 m in length, 0.25 μm phase thickness, and 0.25 mm in diameter.
For analysis, the zNose is programmed with the Sensor Temperature, Inlet Temperature, Valve Temperature, and Initial Column Temperature all set to 40° C. The oven is temperature gradient is programmed at a rate of 10° C./s from 40° C. to a final temperature of 200° C.
TVPS of a compound is measured in the following way: 100 μl±1 μl of a 1% v/v butanethiol (99%, purity, available from Sigma-Aldrich, St. Louis, Mo.) solution in ethanol (200 proof) is added into a 1 ml vial (8×40 mm). These vials are borosilcate glass straight walled vial. In another 1 ml vial (8×40 mm), 5 μl±0.2 μl of the compound is added. Both open vials are then placed inside a 20 mL headspace vial (22×75 mm), and the vial is immediately sealed using a screw thread closure with PTFE/Silicone septa. The vial is heated to 37° C. for 4 hours. After 4 hours, the vial is removed from the oven and let to equilibrate at 25° C.±2° C. for 15 minutes. The headspace inside the vial is sampled using the zNose is sampled for 10 s and analyzed following the experimental protocol outlined above. Samples with butanethiol alone, and the volatile active alone, are run using the same protocol to identify the peaks for both materials. An acceptable retention index for butanethiol is 720±30. If the peaks butanethiol peak and the volatile material peak co-elute, one skilled in the art can modify the protocol settings to separate those peaks to achieve a minimum resolution of 1.5. For example one can change the column temperature ramp rate. In between samples, the instrument needs to be cleaned to remove any trace materials. To clean the instrument, the instrument is run without samples as needed until no peaks greater than 100 counts are observed.
The amount of butanethiol in the headspace is measured from the area of the peak on the chromatograph for butanethiol (ABtSH,Rx). To calculate the percentage of butanethiol reduction in the headspace, a control with the butanethiol solution without the volatile material is run in the same manner and the area is measured as well (ABtSH,C). TVPS is then measured as the percentage reduction in butanethiol area calculated using the following formula: […]

COC[C@H]1O[C@@H]2O[C@H]3[C@H](O)[C@@H](OC)[C@@H](O[C@H]4[C@H](O)[C@@H](OC)[C@@H](O[C@H]5[C@H](O)[C@@H](OC)[C@@H](O[C@H]6[C@H](O)[C@@H](OC)[C@@H](O[C@H]7[C@H](O)[C@@H](OC)[C@@H](O[C@H]8[C@H](O)[C@@H](OC)[C@@H](O[C@H]1[C@H](O)[C@H]2OC)O[C@@H]8COC)O[C@@H]7COC)O[C@@H]6COC)O[C@@H]5COC)O[C@@H]4COC)O[C@@H]3COC [2,6-dimethyl-β-cyclodextrin, 2,6-Di-O-methyl-β-cyclodextrin]
Percent release of fragrance versus conventional β-cyclodextrin complex [1]: much higher percent release of fragrance than does conventional β-cyclodextrin | Release of fragrance versus 2,3,6-trimethyl-β-cyclodextrin complex [1]: much higher release of fragrance than does 2, 3, 6-trimethyl-β-cyclodextrin

Cc1ccc(C=O)s1 [5-methyl-2-thiophene-carboxaldehyde]
TVPS (percentage reduction in butanethiol headspace peak area) [2]: 67.4

C=CC(C)CCC=C(C)CCC=O (centres unmarked) [Floral Super]
TVPS (percentage reduction in butanethiol headspace peak area) [2]: 52.4

CC(C)c1cccc(C(C)CC=O)c1 (centres unmarked) [Florhydral]
TVPS (percentage reduction in butanethiol headspace peak area) [2]: 53.3

CCCCCCC(C=O)=Cc1ccccc1 [Hexylcinnamic aldehyde]
TVPS (percentage reduction in butanethiol headspace peak area) [2]: 8.0

CC(C)=CCCC(C)CCCC(C)C=O (centres unmarked) [adoxal]
TVPS (percentage reduction in butanethiol headspace peak area) [2]: 24.4

CC1=CC(C)C(C=O)CC1 (centres unmarked) [ligustral]
TVPS (percentage reduction in butanethiol headspace peak area) [2]: 42.5

CC(C)=CCCC(C)C=O (centres unmarked) [melonal]
TVPS (percentage reduction in butanethiol headspace peak area) [2]: 20.4

CC(C)=CCC/C(C)=C\C=O [neral]
TVPS (percentage reduction in butanethiol headspace peak area) [2]: 17.1

CCC/C=C/C=O [trans-2-hexenal]
TVPS (percentage reduction in butanethiol headspace peak area) [2]: 27.1
